Publication PMC10033419, “Blocking NS3–NS4B interaction inhibits dengue virus in non-human primates” (Nature, 2023)
Read-outs that look alike come from different tables or passages of the source.

System: DENV-2 RL
Test: microbe, parasite or virus in culture
Format: cell-based
Settings: Dengue virus, DENV2, Vero

Measured: EC50

COc1cc(N[C@H](C(=O)c2c[nH]c3ccc(OC(F)(F)F)cc23)c2ccc(Cl)cc2OC)cc(S(C)(=O)=O)c1 [JNJ-1802]
200 ng/mL: read-out: EC50 values [Well 1], A sample, passage 33 | read-out: EC50 values [Well 1], A sample, passage 34 | read-out: EC50 values [Well 1], A sample, passage 35 | read-out: EC50 values [Well 1], A sample, passage 36 | read-out: EC50 values [Well 2], A sample, passage 37 | read-out: EC50 values [Well 2], A sample, passage 38
31.3 ng/mL: read-out: EC50 values [Well 1], B sample, passage 31 | read-out: EC50 values [Well 1], B sample, passage 32 | read-out: EC50 values [Well 2], B sample, passage 33 | read-out: EC50 values [Well 2], B sample, passage 34 | read-out: EC50 values [Well 2], B sample, passage 35 | read-out: EC50 values [Well 2], B sample, passage 36 | read-out: EC50 values [Well 2], B sample, passage 37 | read-out: EC50 values [Well 2], B sample, passage 38
500 ng/mL: read-out: EC50 values [Well 1], B sample, passage 41 | read-out: EC50 values [Well 1], B sample, passage 42 | read-out: EC50 values [Well 1], B sample, passage 43 | read-out: EC50 values [Well 1], B sample, passage 44 | read-out: EC50 values [Well 1], B sample, passage 45 | read-out: EC50 values [Well 1], B sample, passage 46 | read-out: EC50 values [Well 1], B sample, passage 47 | read-out: EC50 values [Well 2], A sample, passage 39 | read-out: EC50 values [Well 2], A sample, passage 40 | read-out: EC50 values [Well 2], A sample, passage 41 | read-out: EC50 values [Well 2], A sample, passage 42 (END) | read-out: EC50 values [Well 2], B sample, passage 48 | read-out: EC50 values [Well 2], B sample, passage 49 | read-out: EC50 values [Well 2], B sample, passage 50 (END)
0.391 ng/mL: read-out: EC50 values [Well 1], B sample, passage 13 | read-out: EC50 values [Well 1], B sample, passage 19 | read-out: EC50 values [Well 1], B sample, passage 20 | read-out: EC50 values [Well 1], B sample, passage 21 | read-out: EC50 values [Well 1], B sample, passage 22 | read-out: EC50 values [Well 2], A sample, passage 14 | read-out: EC50 values [Well 2], A sample, passage 15 | read-out: EC50 values [Well 2], B sample, passage 23
0.049 ng/mL: read-out: EC50 values [Well 1], B sample, passage 1 | read-out: EC50 values [Well 1], B sample, passage 2 | read-out: EC50 values [Well 1], B sample, passage 3 | read-out: EC50 values [Well 1], B sample, passage 4 | read-out: EC50 values [Well 1], B sample, passage 5 | read-out: EC50 values [Well 2], A sample, passage 6 | read-out: EC50 values [Well 2], A sample, passage 9 | read-out: EC50 values [Well 2], B sample, passage 6 | read-out: EC50 values [Well 2], B sample, passage 7 | read-out: EC50 values [Well 2], B sample, passage 8 | read-out: EC50 values [Well 2], B sample, passage 9 | read-out: EC50 values [Well 2], B sample, passage 10 | read-out: EC50 values [Well 2], B sample, passage 14 | read-out: EC50 values [Well 2], B sample, passage 15
25 ng/mL: read-out: EC50 values [Well 1], B sample, passage 29 | read-out: EC50 values [Well 1], B sample, passage 30 | read-out: EC50 values [Well 2], A sample, passage 24 | read-out: EC50 values [Well 2], A sample, passage 25
50 ng/mL: read-out: EC50 values [Well 2], A sample, passage 26 | read-out: EC50 values [Well 2], A sample, passage 31 | read-out: EC50 values [Well 2], A sample, passage 32
15.6 ng/mL: read-out: EC50 values [Well 2], B sample, passage 31 | read-out: EC50 values [Well 2], B sample, passage 32
250 ng/mL: read-out: EC50 values [Well 1], B sample, passage 40 | read-out: EC50 values [Well 2], B sample, passage 41 | read-out: EC50 values [Well 2], B sample, passage 42 | read-out: EC50 values [Well 2], B sample, passage 43 | read-out: EC50 values [Well 2], B sample, passage 44 | read-out: EC50 values [Well 2], B sample, passage 45 | read-out: EC50 values [Well 2], B sample, passage 46 | read-out: EC50 values [Well 2], B sample, passage 47
6.25 ng/mL: read-out: EC50 values [Well 1], B sample, passage 26 | read-out: EC50 values [Well 1], B sample, passage 27 | read-out: EC50 values [Well 1], B sample, passage 28
3.13 ng/mL: read-out: EC50 values [Well 1], B sample, passage 25 | read-out: EC50 values [Well 2], A sample, passage 18 | read-out: EC50 values [Well 2], B sample, passage 26 | read-out: EC50 values [Well 2], B sample, passage 27 | read-out: EC50 values [Well 2], B sample, passage 28
400 ng/mL: read-out: EC50 values [Well 1], A sample, passage 37 | read-out: EC50 values [Well 1], A sample, passage 38
0.024 ng/mL: read-out: EC50 values [Well 2], A sample, passage 1 | read-out: EC50 values [Well 2], A sample, passage 2 | read-out: EC50 values [Well 2], A sample, passage 3 | read-out: EC50 values [Well 2], A sample, passage 4 | read-out: EC50 values [Well 2], A sample, passage 5 | read-out: EC50 values [Well 2], A sample, passage 7 | read-out: EC50 values [Well 2], A sample, passage 8 | read-out: EC50 values [Well 2], B sample, passage 1 | read-out: EC50 values [Well 2], B sample, passage 2 | read-out: EC50 values [Well 2], B sample, passage 3 | read-out: EC50 values [Well 2], B sample, passage 4 | read-out: EC50 values [Well 2], B sample, passage 5
100 ng/mL: read-out: EC50 values [Well 1], A sample, passage 32 | read-out: EC50 values [Well 2], A sample, passage 27 | read-out: EC50 values [Well 2], A sample, passage 28 | read-out: EC50 values [Well 2], A sample, passage 29 | read-out: EC50 values [Well 2], A sample, passage 30 | read-out: EC50 values [Well 2], A sample, passage 33 | read-out: EC50 values [Well 2], A sample, passage 34 | read-out: EC50 values [Well 2], A sample, passage 35 | read-out: EC50 values [Well 2], A sample, passage 36
1.56 ng/mL: read-out: EC50 values [Well 1], B sample, passage 24 | read-out: EC50 values [Well 2], A sample, passage 17 | read-out: EC50 values [Well 2], B sample, passage 25
12.5 ng/mL: read-out: EC50 values [Well 2], A sample, passage 20 | read-out: EC50 values [Well 2], A sample, passage 21 | read-out: EC50 values [Well 2], A sample, passage 22 | read-out: EC50 values [Well 2], A sample, passage 23 | read-out: EC50 values [Well 2], B sample, passage 29
1000 ng/mL: read-out: EC50 values [Well 1], A sample, passage 39 | read-out: EC50 values [Well 1], A sample, passage 40 | read-out: EC50 values [Well 1], A sample, passage 41 | read-out: EC50 values [Well 1], A sample, passage 42 (END) | read-out: EC50 values [Well 1], B sample, passage 48 | read-out: EC50 values [Well 1], B sample, passage 49 | read-out: EC50 values [Well 1], B sample, passage 50 (END)
0.195 ng/mL: read-out: EC50 values [Well 1], B sample, passage 11 | read-out: EC50 values [Well 1], B sample, passage 12 | read-out: EC50 values [Well 1], B sample, passage 16 | read-out: EC50 values [Well 1], B sample, passage 17 | read-out: EC50 values [Well 1], B sample, passage 18 | read-out: EC50 values [Well 2], A sample, passage 13 | read-out: EC50 values [Well 2], B sample, passage 13 | read-out: EC50 values [Well 2], B sample, passage 19 | read-out: EC50 values [Well 2], B sample, passage 20 | read-out: EC50 values [Well 2], B sample, passage 21 | read-out: EC50 values [Well 2], B sample, passage 22
62.5 ng/mL: read-out: EC50 values [Well 1], B sample, passage 33 | read-out: EC50 values [Well 1], B sample, passage 34 | read-out: EC50 values [Well 1], B sample, passage 35 | read-out: EC50 values [Well 1], B sample, passage 36 | read-out: EC50 values [Well 1], B sample, passage 37 | read-out: EC50 values [Well 1], B sample, passage 38 | read-out: EC50 values [Well 2], B sample, passage 39
125 ng/mL: read-out: EC50 values [Well 1], B sample, passage 39 | read-out: EC50 values [Well 2], B sample, passage 40
